Assay results published in patent US4281121A, “1,3,4-Thiadiazole-2-carboxylic acid derivatives, process for making the same and fungicidal and nematocidal compositions containing same” (Schering Aktiengesellschaft, priority 1978, dated 1981).

Test system: Venturia inaequalis
Test: Prophylactic leaf treatment of apples in open field test against Venturia inaequalis
Format: in vivo
Conditions: concentration of active agent 0.005 (in gram); 3 weeks

| Compound | % activity [%] |
| --- | --- |
| CC(C)NC(=O)c1nnc(S(C)(=O)=O)s1 [5-methylsulfonyl-1,3,4-thiadiazole-2-carboxylic acid-isopropylamide] | 85 |

Same assay, conditions: concentration of active agent 0.025 (in gram); 3 weeks

| Compound | % activity [%] |
| --- | --- |
| CC(C)NC(=O)c1nnc(S(C)(=O)=O)s1 [5-methylsulfonyl-1,3,4-thiadiazole-2-carboxylic acid-isopropylamide] | 100 |

Test system: Piricularia oryzae
Test: not given
Format: in vivo
Conditions: concentration of active agent 0.1 (percentages); 5 days

| Compound | % activity [%] |
| --- | --- |
| CC(C)NC(=O)c1nnc(S(C)(=O)=O)s1 [5-methylsulfonyl-1,3,4-thiadiazole-2-carboxylic acid-isopropylamide] | 90 |

Test system: Plasmopara viticola
Test: Prophylactic leaf treatment of grapevines in the hothouse against Plasmopara viticola
Format: in vivo
Conditions: concentration of active agent 0.005 (unit not given)
Experimental: Effects of prophylactic leaf treatment of grapevines in the hothouse against Plasmopara viticola
Young grapevine plants having from 5 to 8 leaves were sprayed dripping wet with the concentrations of active agents stated in the table below. After drying of the spray deposit the leaves were sprayed with an aqueous suspension of sporangia of the fungus (about 20,000 per ml); the spraying was applied to the bottom side of the leaves. The plants were then immediately incubated in a hothouse at a temperature of 22° to 24° C. and at maximum water saturation in the atmosphere. Beginning with the second day the humidity of the air was reduced for 3 to 4 days to normal level (30 to 70% saturation) and was then maintained for another day on the level of full saturation. Subsequently, the percentage portion of the fungus infested surface of each leaf was noted and the average per treatment was calculated in order to determine the fungicidal activity. This was done on the basis of the following formula: [formula]
The active compounds were applied in the form of a 20% concentration spray powder.

| Compound | % activity [%] |
| --- | --- |
| CC(C)NC(=O)c1nnc(S(C)(=O)=O)s1 [5-methylsulfonyl-1,3,4-thiadiazole-2-carboxylic acid-isopropylamide] | 76 |

Same assay, conditions: concentration of active agent 0.025 (unit not given)

| Compound | % activity [%] |
| --- | --- |
| CC(C)NC(=O)c1nnc(S(C)(=O)=O)s1 [5-methylsulfonyl-1,3,4-thiadiazole-2-carboxylic acid-isopropylamide] | 96 |

Test system: Tilletia caries
Test: Treatment of oat seeds infested with Tilletia caries (spore germination)
Format: in vivo
Conditions: 10 g active agent per 100 kg

| Compound | % activity [%] |
| --- | --- |
| CC(C)NC(=O)c1nnc(S(C)(=O)=O)s1 [5-methylsulfonyl-1,3,4-thiadiazole-2-carboxylic acid-isopropylamide] | 100 |
| CCCS(=O)(=O)c1nnc(C(=O)NC)s1 [5-propylsulfonyl-1,3,4-thiadiazole-2-carboxylic acid-methylamide] | 99.5 |

Same assay, conditions: 20 g active agent per 100 kg

| Compound | % activity [%] |
| --- | --- |
| CS(=O)(=O)c1nnc(C(=O)NC2CC2)s1 [5-methylsulfonyl-1,3,4-thiadiazole-2-carboxylic acid-cyclopropylamide] | 98 |
| CC(C)NC(=O)c1nnc(S(C)(=O)=O)s1 [5-methylsulfonyl-1,3,4-thiadiazole-2-carboxylic acid-isopropylamide] | 100 |
| CCCS(=O)(=O)c1nnc(C(=O)NC)s1 [5-propylsulfonyl-1,3,4-thiadiazole-2-carboxylic acid-methylamide] | 99.5 |

Same assay, conditions: 50 g active agent per 100 kg

| Compound | % activity [%] |
| --- | --- |
| CS(=O)(=O)c1nnc(C(=O)NC2CC2)s1 [5-methylsulfonyl-1,3,4-thiadiazole-2-carboxylic acid-cyclopropylamide] | 100 |
| CC(C)NC(=O)c1nnc(S(C)(=O)=O)s1 [5-methylsulfonyl-1,3,4-thiadiazole-2-carboxylic acid-isopropylamide] | 100 |
| CCCS(=O)(=O)c1nnc(C(=O)NC)s1 [5-propylsulfonyl-1,3,4-thiadiazole-2-carboxylic acid-methylamide] | 100 |

Test system: Botrytis cinerea
Test: Prophylactic leaf treatment of tomato plants against Botrytis cinerea
Format: in vivo
Conditions: concentration of 0.025 of the active agent (unit not given)

| Compound | % activity [%] |
| --- | --- |
| CS(=O)(=O)c1nnc(C(=O)NC2CC2)s1 [5-methylsulfonyl-1,3,4-thiadiazole-2-carboxylic acid-cyclopropylamide] | 75 |
| CCCS(=O)(=O)c1nnc(C(=O)NC)s1 [5-propylsulfonyl-1,3,4-thiadiazole-2-carboxylic acid-methylamide] | 88 |

Test system: Helminthosporium gram
Test: not given
Conditions: 50 g active agent per 100 kg; about 5 weeks

| Compound | % activity [%] |
| --- | --- |
| CC(C)NC(=O)c1nnc(S(C)(=O)=O)s1 [5-methylsulfonyl-1,3,4-thiadiazole-2-carboxylic acid-isopropylamide] | 90 |

Test system: Pythium ultimum
Test: Threshold concentration test for use of the compounds against Pythium ultimum (infested soil, garden peas)
Format: in vivo
Parameters: key to root evaluation (1-4): 4: white roots without fungous necrosis; 3: white roots, minor fungous necrosis; 2: brown roots, already more pronounced fungous necrosis; 1: heavy fungous necrosis, roots rotted
Conditions: 20 mg/l soil; 3 weeks
How it was run: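 Garden pea seeds, 20 per dish, went straight into Pythium ultimum-infested soil into which 20% pulverulent formulations had been uniformly blended. Sound plants counted and roots rated 1–4 after three weeks of hothouse growth at 20–24 °C.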

| Compound | root evaluation (1-4) |
| --- | --- |
| CS(=O)(=O)c1nnc(C(=O)NC2CC2)s1 [5-methylsulfonyl-1,3,4-thiadiazole-2-carboxylic acid-cyclopropylamide] | 1 |
| CC(C)NC(=O)c1nnc(S(C)(=O)=O)s1 [5-methylsulfonyl-1,3,4-thiadiazole-2-carboxylic acid-isopropylamide] | 4 |
| CCCS(=O)(=O)c1nnc(C(=O)NC)s1 [5-propylsulfonyl-1,3,4-thiadiazole-2-carboxylic acid-methylamide] | 4 |

Same assay, conditions: 20 mg/l soil; 20 grains per dish; 3 weeks at 20-24° C.

| Compound | number of sound peas |
| --- | --- |
| CS(=O)(=O)c1nnc(C(=O)NC2CC2)s1 [5-methylsulfonyl-1,3,4-thiadiazole-2-carboxylic acid-cyclopropylamide] | 13 |
| CC(C)NC(=O)c1nnc(S(C)(=O)=O)s1 [5-methylsulfonyl-1,3,4-thiadiazole-2-carboxylic acid-isopropylamide] | 15 |
| CCCS(=O)(=O)c1nnc(C(=O)NC)s1 [5-propylsulfonyl-1,3,4-thiadiazole-2-carboxylic acid-methylamide] | 19 |

Same assay, conditions: 40 mg/l soil; 3 weeks

| Compound | root evaluation (1-4) |
| --- | --- |
| CS(=O)(=O)c1nnc(C(=O)NC2CC2)s1 [5-methylsulfonyl-1,3,4-thiadiazole-2-carboxylic acid-cyclopropylamide] | 4 |
| CC(C)NC(=O)c1nnc(S(C)(=O)=O)s1 [5-methylsulfonyl-1,3,4-thiadiazole-2-carboxylic acid-isopropylamide] | 4 |
| CCCS(=O)(=O)c1nnc(C(=O)NC)s1 [5-propylsulfonyl-1,3,4-thiadiazole-2-carboxylic acid-methylamide] | 4 |

Same assay, conditions: 40 mg/l soil; 20 grains per dish; 3 weeks at 20-24° C.

| Compound | number of sound peas |
| --- | --- |
| CS(=O)(=O)c1nnc(C(=O)NC2CC2)s1 [5-methylsulfonyl-1,3,4-thiadiazole-2-carboxylic acid-cyclopropylamide] | 20 |
| CC(C)NC(=O)c1nnc(S(C)(=O)=O)s1 [5-methylsulfonyl-1,3,4-thiadiazole-2-carboxylic acid-isopropylamide] | 18 |
| CCCS(=O)(=O)c1nnc(C(=O)NC)s1 [5-propylsulfonyl-1,3,4-thiadiazole-2-carboxylic acid-methylamide] | 16 |

Same assay, conditions: 80 mg/l soil; 3 weeks

| Compound | root evaluation (1-4) |
| --- | --- |
| CS(=O)(=O)c1nnc(C(=O)NC2CC2)s1 [5-methylsulfonyl-1,3,4-thiadiazole-2-carboxylic acid-cyclopropylamide] | 4 |
| CC(C)NC(=O)c1nnc(S(C)(=O)=O)s1 [5-methylsulfonyl-1,3,4-thiadiazole-2-carboxylic acid-isopropylamide] | 4 |
| CCCS(=O)(=O)c1nnc(C(=O)NC)s1 [5-propylsulfonyl-1,3,4-thiadiazole-2-carboxylic acid-methylamide] | 4 |

Same assay, conditions: 80 mg/l soil; 20 grains per dish; 3 weeks at 20-24° C.

| Compound | number of sound peas |
| --- | --- |
| CS(=O)(=O)c1nnc(C(=O)NC2CC2)s1 [5-methylsulfonyl-1,3,4-thiadiazole-2-carboxylic acid-cyclopropylamide] | 20 |
| CC(C)NC(=O)c1nnc(S(C)(=O)=O)s1 [5-methylsulfonyl-1,3,4-thiadiazole-2-carboxylic acid-isopropylamide] | 15 |
| CCCS(=O)(=O)c1nnc(C(=O)NC)s1 [5-propylsulfonyl-1,3,4-thiadiazole-2-carboxylic acid-methylamide] | 15 |

Test system: Helminthosporium gramineum
Test: Seed treatment in open field tests for infestation by Helminthosporium gramineum (barley)
Format: in vivo
Conditions: summer barley; 50 g active agent/100 kg barley; about 3 months
Experimental: Seed treatment in open field tests for infestation by Helminthosporium gramineum
The active agents were used in the form of pulverulent compositions. After about 8 months in case of winter barley and after about 3 months in case of summer barley the infested plants were counted and the activity was calculated by the formula [formula]

| Compound | % activity [%] |
| --- | --- |
| CC(C)NC(=O)c1nnc(S(C)(=O)=O)s1 [5-methylsulfonyl-1,3,4-thiadiazole-2-carboxylic acid-isopropylamide] | 100 |
